Source: the NIST ThermoML archive (doi:10.1021/acs.jced.5b00724)
Values joined by “and” are separate entries in the source; they are usually repeats but may differ in a detail not shown here. Identical values can stand only once. ± gives the expanded uncertainty stated by the source.

Assays:
[1] = 350.12 K; Liquid; Closed cell (Static) method
[2] = refractive index (Na D-line) (dimensionless); conditions: 298.15 K; 101.33 kPa; Liquid; Standard Abbe refractometry
[3] = wn = mass fraction of the nth substance listed; conditions: 298.1 K, Liquid, Vibrating tube method
[4] = excess molar enthalpy (molar enthalpy of mixing); xn = mol fraction of the nth substance listed; conditions: 130 kPa, Liquid, Calvet calorimetry

O [water]
Conditions | refractive index | vapor or sublimation pressure [kPa]
[1] | – | 41.9 ± 0.2
[2] | 1.3325 ± 0.0008 | –

CC1CCC(=O)O1 (stereo not drawn) [γ-valerolactone] + O
Conditions | excess molar enthalpy | mass density [kg/m3]
[3], 107 kPa, w2 = 0 | – | 1048.8 ± 0.8
[3], 107 kPa, w2 = 0.1004 | – | 1047 ± 0.8
[3], 107 kPa, w2 = 0.2005 | – | 1044.9 ± 0.8
[3], 107 kPa, w2 = 0.3025 | – | 1041.7 ± 0.8
[3], 107 kPa, w2 = 0.4 | – | 1037.6 ± 0.8
[3], 107 kPa, w2 = 0.5 | – | 1032.9 ± 0.8
[3], 107 kPa, w2 = 0.6 | – | 1027.1 ± 0.8
[3], 108 kPa, w2 = 0.6999 | – | 1021.1 ± 0.8
[3], 109 kPa, w2 = 0.7999 | – | 1013.8 ± 0.8
[3], 109 kPa, w2 = 0.8997 | – | 1005.5 ± 0.8
[4], 303.2 K, x2 = 0.097 | 0.124 ± 0.0129 kcal/mol | –
[4], 303.2 K, x2 = 0.203 | 0.197 ± 0.0208 kcal/mol | –
[4], 303.2 K, x2 = 0.303 | 0.222 ± 0.0225 kcal/mol | –
[4], 303.2 K, x2 = 0.4 | 0.217 ± 0.022 kcal/mol | –
[4], 303.2 K, x2 = 0.514 | 0.194 ± 0.0198 kcal/mol | –
[4], 303.2 K, x2 = 0.601 | 0.15 ± 0.0158 kcal/mol | –
[4], 303.2 K, x2 = 0.7 | 0.107 ± 0.011 kcal/mol | –
[4], 303.2 K, x2 = 0.801 | 0.0581 ± 0.00598 kcal/mol | –
[4], 303.2 K, x2 = 0.841 | 0.0387 ± 0.0043 kcal/mol | –
[4], 303.2 K, x2 = 0.894 | 0.0127 ± 0.00167 kcal/mol | –
[4], 303.2 K, x2 = 0.9 | 0.0103 ± 0.00215 kcal/mol | –
[4], 303.2 K, x2 = 0.914 | 0.00308 kcal/mol and 0.00239 kcal/mol | –
[4], 303.2 K, x2 = 0.93 | -0.00437 ± 0.000956 kcal/mol | –
[4], 303.2 K, x2 = 0.946 | -0.0098 ± 0.0012 kcal/mol | –
[4], 303.2 K, x2 = 0.9815 | -0.0182 ± 0.00191 kcal/mol | –
[4], 303.2 K, x2 = 0.9906 | -0.0103 ± 0.0012 kcal/mol | –
[4], 303.2 K, x2 = 0.9962 | -0.00416 ± 0.000837 kcal/mol | –
[4], 303.2 K, x2 = 0.9981 | -0.0021 ± 0.000741 kcal/mol | –
[4], 322.6 K, x2 = 0.204 | 0.207 ± 0.0055 kcal/mol | –
[4], 322.6 K, x2 = 0.401 | 0.249 ± 0.00645 kcal/mol | –
[4], 322.6 K, x2 = 0.503 | 0.232 ± 0.00621 kcal/mol | –
[4], 322.6 K, x2 = 0.602 | 0.197 kcal/mol | –
[4], 322.6 K, x2 = 0.7 | 0.152 ± 0.00454 kcal/mol | –
[4], 322.6 K, x2 = 0.801 | 0.097 ± 0.00335 kcal/mol | –
[4], 322.6 K, x2 = 0.9 | 0.0402 ± 0.00263 kcal/mol | –
[4], 322.6 K, x2 = 0.95 | 0.0116 ± 0.00234 kcal/mol | –
